Laboratory results as given in article PMC10779086, “3-O-Methyltolcapone and Its Lipophilic Analogues Are Potent Inhibitors of Transthyretin Amyloidogenesis with High Permeability and Low Toxicity” (International Journal of Molecular Sciences, 2023).
Several values for one entry are separate records, joined by “and”; a condition that tells them apart may be missing. Equal entries are not always repeated.

Tests used:
[1] = Kinetic solubility in PBS; type: physicochemical; conditions: Phosphate Buffered Saline (PBS), aqueous buffer, kinetic from dmso stock, PBS pH 7.4, 1% DMSO
Protocol: (§1) The assay combines solubility and a non-cell-based Blood Brain Barrier permeability assay (Parallel Artificial Membrane Permeation Assay; PAMPA-BBB) into a single workflow in which a portion of the filtrate from the Solubility filter plate is added to the donor compartment of the MultiScreen filter plate for the PAMPA-BBB analysis. […] Solutions were filtered into a 96-well collection plate using vacuum filtration and then analysed by UV/Vis spectroscopy. The relative solubility was then calculated using the sum of the recorded values as compared to a standard calibration curve. […] PAMPA-BBB determination was carried out in a 96-well MultiScreen Permeability plate and the ability of a compound to diffuse from a Donor to an Acceptor compartment separated by a Porcine Brain Lipid Extract (PBLE) dissolved in dodecane (20 mg/mL) layer on a PVDF membrane support was measured. The assay was performed in duplicate in PBS at pH 7.4 and the analysis is carried out by UV/Vis spectroscopy.

[2] = Caco-2 intestinal permeability; type: in vitro ADME, human; conditions: human; for efflux ratio at 60 min, 10 μM: Caco-2, pH 7.4, without inhibitor, read-out: Efflux Ratio (Papp BA/Papp AB); for Papp A→B at 60 min, 10 μM / Papp B→A at 60 min, 10 μM: Caco-2, pH 7.4
Protocol: Caco-2 cells (cod. HTB-37) were bought from ATCC (American Type Culture Collection, Rockville, MD, USA). Caco-2 cells were cultured for 21 days on a 24 trans-well plate to reach the right confluence and differentiate until the formation of the intestinal epithelium mimetic monolayer. The test substance permeability was measured in both directions (apical to basolateral [A→B] and basolateral to apical [B→A]) across the cell monolayer. The assay was carried out in HBSS transport medium at pH 7.4. Test substance at single concentration (10 μM) was tested in duplicate at one time point (60 min). Monolayer integrity of Caco-2 cells was evaluated by TEER measurements during the experiment and by Lucifer Yellow test after the incubation with the test compound. The concentrations of the test substance and/or reference controls were measured by LC-MS/MS.
When the inhibitor leads the efflux ratio to a significant reduction (>50%) or to unity, the test compound is classified as a probable substrate of that efflux transporter. As control, the modulation of the efflux ratio of a reference known substrate (Digoxin) was evaluated with or without the respectively inhibitors in every experiment. […] In parallel, mass balance (%) of recovered test substance was also determined. […] Outside these ranges the permeability data is not reliable.

TTR [3] = target: T1, TTR (Homo sapiens, UniProt P02766); experiment: Isothermal titration calorimetry (ITC), one-binding-site model; parameters: made in house; host or cells: E. coli BL21; ∆S: unit not given here; conditions: single-binding-site model, 25 °C; for Kd: pH 7.4, 5% DMSO
Protocol: At an absorbance value of 600 nm around 0.3, the temperature was shifted to 30 °C.
Data were fitted using the “one-binding-site model” of the Malvern version of ORIGIN v.7. The heat of binding (ΔH), the stoichiometry (n), entropy (ΔS) and the dissociation constant (Kd) were then calculated from plots of the heat evolved per mole of ligand injected versus the molar ratio of ligand to protein using the software provided by the vendor (Table 3). Sample preparation is detailed below. […] A 10 µM protein stock in 2× buffer was then prepared and diluted 1:1 with a 10% DMSO solution, to obtain a 5 µM TTR solution in 1× buffer A and 5% DMSO. Different protein concentrations (3–5 µM) assayed in the replicates were prepared accordingly, starting from a 2× protein solution in 2× buffer A. Each ligand was dissolved in 100% DMSO and a 2 mM stock solution in 100% DMSO was prepared. A 200 µM compound solution was obtained in 10% DMSO and diluted 1:1 with 2× buffer A, to obtain a 100 µM ligand solution to be used for the ITC assays (in 1× buffer A and 5% DMSO).

TTR [4] = target: T1, TTR; experiment: TTR tetramer stability in diluted human plasma with urea, by immunoblotting; type: biochemical; parameters: from tissue; host or cells: human plasma; conditions: 4 M urea, versus DMSO control
Protocol: The TTR tetramer stability assay in the presence of urea and TTR ligands was performed according to a previously reported Western Blot procedure, with some modifications as follows. Aliquots of human plasma were diluted 8-fold in sodium phosphate buffer (NaP 40 mM, NaCl 150 mM pH 7.4) supplemented with 2 µM or 20 µM of each ligand. A plasma aliquot supplemented with DMSO was used as a negative control. After 2 h of incubation at 20 °C, an equal volume of 8 M urea in sodium phosphate buffer was added to obtain a final 4 M urea concentration and final ligand concentration of 1 µM or 10 µM. Incubation was prolonged for 18 h at 20 °C, followed by non-denaturing SDS-PAGE using Tris-Glycine buffers containing 0.025% of SDS in the running buffer and 0.2% of SDS in the Laemmli buffer. […] Blotting was accomplished with a Trans-Blot SD transfer apparatus (BIORAD), followed by incubation of nitrocellulose membranes with blocking buffer containing 5% skim milk overnight at 25 °C. Immunodetection of TTR monomers was performed by employing rabbit anti-human TTR polyclonal antibody (Dako) as a primary and goat anti-rabbit antibody labelled with DyLight 680 ([…]) as a secondary. Western Blot images were recorded by using ChemiDoc MP imaging system (BIORAD) and analysed with Image Lab software v. 5.1 (BIORAD). The experiment was performed in triplicate, and ligands stabilisation capability was evaluated as the relative intensity of the TTR monomer in each condition in comparison to the negative control. Statistical analyses by means of ANOVA and graphic representations were performed with GraphPad Prism.

[5] = Blood-brain barrier permeability (PAMPA-BBB); type: in vitro ADME; conditions: for Papp: PBS pH 7.4, read-out: BBB-Pe; for CNS Class: classified by Pe; for permeability (Pe) times higher compared to tolcapone: relative to tolcapone
Protocol: as §1
The compounds are classified into 2 types: CNS+ compounds that can cross the BBB and CNS- compounds that cannot according to the Pe values (BBB−, Pe < 2 × 10^−6 cm/s; BBB +/−, 2 × 10^−6 cm/s < Pe < 4 × 10^−6 cm/s; BBB+, Pe > 4 × 10^−6 cm/s).
Membrane retention is also evaluated according to Equation (1), (1) 1−Rm=CAccVAcc+CDonorVDonor/Sol×VDonor where Rm is the membrane retention factor. 1 − Rm between 1.2 and 0.8 is considered fully acceptable for the reliability of the results.

| SMILES | solubility [1] [µM] | recovery at 60 min, 10 µM ([2]; Caco-2, pH 7.4, A→B) [%] | recovery at 60 min, 10 µM ([2]; Caco-2, pH 7.4, B→A) [%] | efflux ratio at 60 min, 10 μM [2] | Papp A→B at 60 min, 10 μM [2] [×10⁻⁶ cm/s] | Papp B→A at 60 min, 10 μM [2] [×10⁻⁶ cm/s] | n (stoichiometry of binding, ligand:TTR tetramer) (TTR [3]) | ∆H (TTR [3]) | ∆S (TTR [3]) | Kd (TTR [3]) [nM] | relative abundance of TTR monomer (TTR [4]; ligand 1 µM) | relative abundance of TTR monomer (TTR [4]; ligand 10 µM) [%] | 1-Rm (membrane retention) [5] | Papp [5] [×10⁻⁶ cm/s] | CNS Class [5] | permeability (Pe) times higher compared to tolcapone [5] [times] |
| --- | --- | --- | --- | --- | --- | --- | --- | --- | --- | --- | --- | --- | --- | --- | --- | --- |
| COc1cc(C(=O)c2ccc(C)cc2)cc([N+](=O)[O-])c1O [3-OMT, 3-O-methyltolcapone] | > 500 | 66 ± 4 | 83 ± 8 | 1.5 | 16 ± 2.9 | 24.3 ± 3 | 1.9 ± 0.2 | -8.9 kcal/mol and -8.9 ± 0.3 kcal/mol | 4.6 ± 0.5 | 33 ± 9 | 14% and 14.1 ± 1.8% | 9.4 ± 1.5 | 0.9 | 14.4 | CNS+ (BBB+, Pe > 4 × 10^−6 cm/s) | 2.5 |
| COc1cc(C(=O)c2cc(C)cc(C)c2)cc([N+](=O)[O-])c1O [Compound 1, (4-Hydroxy-3-methoxy-5-nitrophenyl)-1-(3,5-dimethylphenyl)methanone] | > 500 | 64 ± 4 | 77 ± 2 | 1 | 24 ± 2.1 | 23.1 ± 2.3 | 1.8 ± 0.1 | -11.5 kcal/mol and -11.5 ± 1.3 kcal/mol | −2.9 ± 0.9 | 71 ± 26 | 17% and 17.2 ± 2.1% | 9.5 ± 2.8 | 0.9 | 15.3 | CNS+ (BBB+, Pe > 4 × 10^−6 cm/s) | 2.5 |
| COc1cc(C(=O)c2ccc(C)cc2C)cc([N+](=O)[O-])c1O [Compound 2, (4-Hydroxy-3-methoxy-5-nitrophenyl)-1-(2,4-dimethylphenyl)methanone] | > 500 | 69 ± 8 | 80 ± 9 | 1 | 25 ± 0.3 | 26.8 ± 2.5 | 2.1 ± 0.3 | -10.5 kcal/mol and -10.5 ± 0.2 kcal/mol | −0.4 ± 0.1 | 25 ± 5 | 7% and 7.5 ± 0.4% | 9.2 ± 1.5 | 1.0 | 13.5 | CNS+ (BBB+, Pe > 4 × 10^−6 cm/s) | 2.5 |
